Each structure is given as a SMILES string.

The nature of one data set: method code SF-AS, from DOI: 10.1016/0021-9673(94)89049-8. The following applies: pH 7.0.
One may read the logD as the decadic logarithm of the distribution of all forms, ionised or not, between an organic phase and buffer at a given pH. Lower therefore signals a more hydrophilic compound. In turn, `Nc1ncnc2c1ncn2[C@@H]1O[C@H](CCl)[C@@H](O)[C@H]1O` returned a logD of -0.06.
Same read-out and setting: under `Nc1nc(Cl)nc2c1ncn2[C@H]1C[C@H](O)[C@@H](CO)O1` stands 0.03; under `Nc1nc(F)nc2c1ncn2[C@@H]1O[C@H](CO)[C@@H](O)[C@H]1O`, -0.8.
On the same count and under the same terms, under `Nc1nc(Cl)nc2c1ncn2C1OC(CO)C(O)C1O` (centres undefined) stands -0.37.

Assay in the next data set: not given
Conditions: not given
Usually logP stands for the decadic logarithm of the partition coefficient of the neutral form, usually between octanol and water. Low readings indicate lower lipophilicity, high ones higher lipophilicity. The compound `CN1CCc2cccc(Cl)c2CC1` gave a logP of 2.92.
Same read-out and setting: under `NC(=O)CCN1CCc2cccc(Cl)c2CC1` stands 1.64; under `NC(=O)NCCN1CCc2cccc(Cl)c2CC1`, 2.07.
The compound `C=CCN1CCc2cccc(Cl)c2CC1` came in with a logP of 3.3.

The nature of the next data set: method code SF-HPLC, from DOI: 10.1016/j.bmcl.2010.02.057, PMID: 20231095. The following applies: pH 7.4.
The compound `CC(OC(=O)c1sc2cc(O)c(O)cc2c1Cl)OC(=O)C(C)C` (centres undefined) came in with a logD of 3.02.
`CC(C)C(=O)OCOC(=O)c1sc2cc(O)c(O)cc2c1Cl`: the logD is 2.91.
On the same count and under the same terms, under `CCCOC(=O)c1sc2cc(O)c(O)cc2c1Cl` stands 2.45.
Still for that read-out and setting: under `COC(=O)c1sc2cc(O)c(O)cc2c1Cl` stands 1.51.

Assay in a further data set: not given
Conditions: not given
This is another data set of the same source.
In turn, `O=[N+]([O-])c1nccn1[C@@H]1O[C@H](CO)[C@@H](O)[C@H](O)[C@H]1O` yielded a logP of -1.4.
Same read-out and setting: under `CC(=O)OC[C@H]1S[C@@H](n2ccnc2[N+](=O)[O-])[C@H](OC(C)=O)[C@@H](OC(C)=O)[C@@H]1OC(C)=O` stands 0.63.
Same read-out and setting: under `O=[N+]([O-])c1nccn1[C@@H]1S[C@H](CO)[C@@H](O)[C@H](O)[C@H]1O` stands -0.66.
Same read-out and setting: under `CC(=O)OC[C@H]1O[C@@H](n2ccnc2[N+](=O)[O-])[C@H](OC(C)=O)[C@@H](OC(C)=O)[C@@H]1OC(C)=O` stands 0.52.

The next data set in a line: method code SF-AS, from DOI: 10.1080/00021369.1974.10861343.
Conditions: not given
Regarding `CCOC(=O)C=COc1ccccc1Cl`, the logP was 3.55.
On the same count and under the same terms, under `COC(=O)/C=C/Oc1ccccc1` stands 2.68; under `COC(=O)C=COc1ccccc1Cl`, 3.02.

The same data set, now with this note: pH 3.0.
`O=C(O)/C=C/Oc1ccc(Cl)cc1Cl` registered a logD of 3.46.

A short description of another data set: method code SF-HPLC, from DOI: 10.1021/jm100498u, PMID: 20704351. The following applies: pH 7.4.
For the compound `C[C@H](c1ccccc1)n1cncc1C(=O)OCc1ccc(C2(C(F)(F)F)N=N2)cc1`, the logD was determined as 4.3.
On to `C[C@H](c1ccccc1)n1cncc1C(=O)OCCC1(C)N=N1`, for which the logD came to 3.6.

Assay in a further data set: not given
Conditions: not given
This is another data set of the same source.
As to `c1nnn(C23CC4CC(CC(C4)C2)C3)n1`, the logP came to 2.95.
Still for that read-out and setting: under `c1ccc(C23CC4CC(CC(C4)C2)C3)cc1` stands 5.55; under `c1ccc2c(c1)nnn2C12CC3CC1CCC2C3` (centres undefined), 3.52.
Still for that read-out and setting: under `c1ccc2nn(C34CC5CC(CC(C5)C3)C4)cc2c1` stands 3.68.

Assay in the next data set: not given
Conditions: not given
The source holds these as a separate data set.
The compound `CCNCc1ccccc1` showed a logP of 1.82.
For the compound `CC(N)CCc1ccccc1` (centres undefined), the logP is 2.12.
Same read-out and setting: under `CC(C)NCc1ccccc1` stands 1.83; under `CCCCNCc1ccccc1`, 2.59.

Assay in another data set: not given
Conditions: not given
The source holds these as a separate data set.
With `O=C(O)[C@H]1O[C@@H](Oc2ccccc2)[C@H](O)[C@@H](O)[C@@H]1O`, the logP is 0.73.
Still for that read-out and setting: under `O=C(O)CCCCCOC(=O)Oc1ccccc1` stands 2.56.
On the same count and under the same terms, under `CC(C)(C)OC(=O)Oc1ccccc1` stands 3.02.
The same measure, in the same setting: under `CCOC(=O)Oc1ccccc1` stands 2.18.

A short description of the next data set: method code SF, from PMID: 718082.
Conditions: not given
For the compound `CNC(=O)c1c(I)c(NC(C)=O)c(I)c(C(=O)O)c1I`, the logP is -1.15.
The same measure, in the same setting: under `CNC(=O)c1c(I)c(NC(C)=O)c(I)c(OCC2OC(O)C(O)C(O)C2O)c1I` (centres undefined) stands -1.26; under `OC[C@H]1O[C@@H](Oc2cc(O[C@@H]3O[C@H](CO)[C@@H](O)[C@H](O)[C@H]3O)c(I)c(O[C@@H]3O[C@H](CO)[C@@H](O)[C@H](O)[C@H]3O)c2I)[C@H](O)[C@@H](O)[C@@H]1O`, -2.22; under `CC(=O)Nc1c(I)c(NC(C)=O)c(I)c(C(=O)O)c1I`, -1.05.

The next data set can be described thus: method code SF-AS, from DOI: 10.1111/j.2042-7158.1979.tb13606.x, PMID: 41067. The following applies: pH 1.2.
With `COc1ccc(CC(=O)O)cc1`, the logD was 1.48.
Still for that read-out and setting: under `O=C(O)CCc1ccc(O)cc1` stands 1.16; under `CCOc1ccc(CC(=O)O)cc1`, 1.95.
In turn, `COc1ccc(CCCC(=O)O)cc1` had a logD of 2.33.

A further data set is described as follows: method code SF-HPLC, from DOI: 10.1002/ps.2780310207.
Conditions: not given
On to `Fc1ccc(C2(Cn3cncn3)CC2)cc1`, for which the logP came to 1.54.
`CCCC(Cn1cncn1)c1ccc(F)cc1` (centres undefined) returned a logP of 2.01.

A short description of a further data set: method code SF-AS, from DOI: 10.1002/ddr.430140205. The following applies: pH 7.4.
As for `COc1ccc(CC2CNC(=O)C2)cc1OC` (centres undefined), the logD is 0.58.
In the case of `CSc1ccc(C(=O)c2[nH]c(=O)[nH]c2C)cc1`, the logD came out at 1.55.
On the same count and under the same terms, under `O=C1CCC(c2ccc(-n3ccnc3)cc2)=NN1` stands 1; under `O=C1CCC(c2ccncc2)=NN1`, 0.18.

The nature of another data set: method code SF-AS, from DOI: 10.1021/jf950378u.
Conditions: not given
`Oc1cc(O)c2c(c1)O[C@H](c1ccc(O)c(O)c1)[C@@H](O)C2` gave a logP of 1.31.
Still for that read-out and setting: under `O=c1ccc2ccc(O)c(O)c2o1` stands 0.71.
The same measure, in the same setting: under `O=C(O)/C=C/c1ccccc1O` stands 0.62.
Same read-out and setting: under `COc1ccc([C@@H]2CC(=O)c3c(O)cc(O[C@@H]4O[C@H](CO[C@@H]5O[C@@H](C)[C@H](O)[C@@H](O)[C@H]5O)[C@@H](O)[C@H](O)[C@H]4O)cc3O2)cc1O` stands 0.32.

Assay in a further data set: not given
Conditions: not given
The source holds these as a separate data set.
In turn, `COc1ccc(C(OC(C)=O)C(Cl)(Cl)Cl)cc1` (centres undefined) showed a logP of 3.72.
The same measure, in the same setting: under `CC1(C)[C@H](C(=O)OCc2coc(Cc3ccccc3)c2)[C@@H]1/C=C1/CCSC1=O` stands 4.31.
The same measure, in the same setting: under `COP(N)(=S)Oc1ccccc1C(=O)OC(C)C` (centres undefined) stands 2.7; under `CNC(=O)ON=C(CS(C)=O)C(C)(C)C` (centres undefined), 2.75.

Assay in the next data set: not given
Conditions: not given
This is another data set of the same source.
Turning to `Clc1cccc(-c2ccccc2Cl)c1`, the logP worked out at 5.02.
Turning to `Clc1ccc(-c2c(Cl)ccc(Cl)c2Cl)c(Cl)c1`, the logP came out at 6.31.
Still for that read-out and setting: under `Clc1cccc(-c2cccc(Cl)c2Cl)c1` stands 5.57; under `Clc1ccccc1-c1cccc(Cl)c1Cl`, 5.31.

The nature of a further data set: method code SF-HPLC, from DOI: 10.1023/a:1016462801968, PMID: 3334410.
Conditions: not given
Consider `CCCC(=O)OCC(COC(=O)CCC)OCn1cnc2c(=O)[nH]c(N)nc21`, for which the logP amounted to 0.83.
The same measure, in the same setting: under `CCC(=O)OCC(COC(=O)CC)OCn1cnc2c(=O)[nH]c(N)nc21` stands -0.14; under `Nc1nc2c(ncn2COC(CO)CO)c(=O)[nH]1`, -1.66; under `COC(=O)OCC(COC(=O)OC)OCn1cnc2c(=O)[nH]c(N)nc21`, -0.88.

Assay in the next data set: not given
Conditions: not given
This is another data set of the same source.
`COC(=O)CS(=O)(=O)c1ccccc1[N+](=O)[O-]` came in with a logP of 0.95.
Still for that read-out and setting: under `COC(=O)CSc1ccc([N+](=O)[O-])cc1[N+](=O)[O-]` stands 2.03; under `CC(C)OC(=O)CS(=O)(=O)c1ccc([N+](=O)[O-])cc1[N+](=O)[O-]`, 2.01.
The same measure, in the same setting: under `COC(=O)CS(=O)c1ccc([N+](=O)[O-])cc1Cl` (centres undefined) stands 1.69.

The next data set can be described thus: method code SF-AS, from DOI: 10.1007/bf01648987.
Conditions: not given
`CC(=O)OC(OC(C)=O)c1ccccc1` showed a logP of 1.62.
`CC(=O)Oc1cccc2ccccc12` had a logP of 2.78.
Still for that read-out and setting: under `CC(=O)N(CCCl)c1ccc(CC(=O)O)cc1` stands 1.2.
On the same count and under the same terms, under `CCN(CCOC(C)=O)c1ccccc1` stands 2.04.

The next data set in a line: method code SF, from DOI: 10.1016/0378-5173(86)90155-9. The following applies: pH 7.0.
Take `NS(=O)(=O)CCCOc1ccc([N+](=O)[O-])cc1`: the logD turned out to be 0.97.
`NC(=O)CCCCOC(=O)c1ccccc1` came in with a logD of 1.39.
On the same count and under the same terms, under `CS(=O)(=O)CCCOc1ccc([N+](=O)[O-])cc1` stands 1.1.
Still for that read-out and setting: under `CSCCCOc1ccc([N+](=O)[O-])cc1` stands 3.24.

Assay in the next data set: not given
The settings on record: pH 3.0.
For the compound `N#CC(C#N)=NNc1ccc(/N=N/c2ccccc2)cc1`, the logD came out at 4.25.
Same read-out and setting: under `N#CC(C#N)=NNc1ccc(OC(F)(F)F)cc1` stands 3.68; under `CC(=O)Nc1ccc(NN=C(C#N)C#N)cc1`, 1.83.

The same data set, now with this note: pH 7.2.
Regarding `N#CC(C#N)=NNc1ccc(CCCl)cc1`, the logD turned out to be 2.44.

The next data set is described as follows: method code SF-AS, from DOI: 10.1002/jps.2600741028, PMID: 4078715.
Conditions: not given
For `Cc1cccc(C)c1C#[N+][O-]`, the logP amounted to 2.74.
On to `CC(C)c1ccc(C=[N+]([O-])c2ccccc2)cc1`, for which the logP was 3.37.
Still for that read-out and setting: under `[O-][N+](=Cc1ccccc1)c1ccccc1` stands 1.88.
The same measure, in the same setting: under `Cc1ccc(C=[N+]([O-])c2ccccc2)cc1` stands 2.41.

(Values after the SangsterLogP compilation.)
